IC90 data for 34 compounds are collected here from US20230141403A1 (Hoffmann-La Roche Inc., priority 2020, published 2023).

Broadly, the IC90 is the concentration needed for an effect of 90%.

Structures can show the parent of a compound that is named as a salt.

The test system of the first assay is Acinetobacter baumannii ATCC17978. Briefly: Antimicrobial susceptibility testing: 90% growth inhibitory concentration (IC90) determination. The class given is cell-based. Conditions: ATCC17978, 90% growth inhibitory concentration, Iso-Sensitest broth, optical density at 600 nm over 16h, 35±2° C., read-out: AB ATCC 17978 IC90. The procedure:
Antimicrobial Susceptibility Testing:
90% Growth Inhibitory Concentration (IC90) Determination
The in vitro antimicrobial activity of the compounds was determined according to the following procedure:
The assay used a 10-points Iso-Sensitest broth medium to measure quantitatively the in vitro activity of the compounds against Acinetobacter baumannii ATCC17961 or ATCC17978.
Stock compounds in DMSO were serially twofold diluted (e.g. range from 50 to 0.097 μM final concentration) in 384 wells microtiter plates and inoculated with 49 μl the bacterial suspension in Iso-Sensitest medium to have a final cell concentration of ˜5×10^(5) CFU/ml in a final volume/well of 50 ul/well. Microtiter plates were incubated at 35±2° C.
Bacterial cell growth was determined with the measurement of optical density at λ=600 nm each 20 minutes over a time course of 16h. Growth inhibition was calculated during the logarithmic growth of the bacterial cells with determination of the concentration inhibiting 50% (IC50) and 90% (IC90) of the growth.
Table 1 provides the 90% growth inhibitory concentrations (IC90) in micromoles per liter of the compounds of present invention obtained against the strain Acinetobacter baumannii ATCC17978.
`COc1ccc(-c2cnc3c(Nc4ccc(NC(C)=O)c(C)c4)nccn23)c(F)c1` [Example 89, N-(4-((3-(2-fluoro-4-methoxyphenyl)imidazo [1,2-a]pyrazin-8-yl)amino)-2-methylphenyl) acetamide]: the IC90 amounted to 0.28 µM. For the compound `CC(=O)Nc1ccc(Nc2nccn3c(-c4ccc(Cl)c(F)c4)cnc23)cc1C` [Example 84, N-(4-((3-(4-chloro-3-fluorophenyl)imidazo[1,2-a]pyrazin-8-yl)amino)-2-methylphenyl)], the IC90 was determined as 0.17 µM. On to `Cc1cc(Nc2nccn3c(-c4ccc(OC(F)F)cc4)cnc23)ccc1CO` [Example 121, (4-((3-(4-(difluoromethoxy)phenyl)imidazo[1,2-a]pyrazin-8-yl)amino)-2-methylphenyl) methanol], for which the IC90 was 0.67 µM.

For `COc1ccc(-c2cnc3c(Nc4ccc(NC(C)=O)cc4)nccn23)cc1Cl` [Example 17, N-(4-((3-(3-chloro-4-methoxyphenyl)imidazo[1,2-a]pyrazin-8-yl)amino)phenyl)acetamide], the IC90 worked out at 0.43 µM. Regarding `CNC(=O)c1cc(Nc2nccn3c(-c4ccc(OC)cc4)cnc23)ccc1Cl` [Example 76, 2-chloro-5-((3-(4-methoxyphenyl)imidazo[1,2-a]pyrazin-8-yl)amino)-N-methylbenzamide], the IC90 worked out at 0.73 µM. Still for that read-out and setting: the figure for `CC(=O)Nc1ccc(Nc2nccn3c(-c4ccc(F)c(F)c4)cnc23)cc1C` [Example 85, N-(4-((3-(3,4-difluorophenyl)imidazo[1,2-a]pyrazin-8-yl)amino)-2-methylphenyl) acetamide] is 0.34 µM. The same measure, in the same setting: the figure for `CCN(CC)C(=O)CNS(=O)(=O)c1ccc(Nc2nccn3c(-c4ccc(OC)cc4)cnc23)cc1` [Example 80, N,N-diethyl-2-(4-((3-(4-methoxyphenyl)imidazo[1,2-a]pyrazin-8-yl)amino)phenylsulfonamido) acetamide] is 0.76 µM. Same read-out and setting: then `COc1ccc(-c2cnc3c(Nc4ccc(NC(C)=O)c(CO)c4)nccn23)cc1` [Example 50, N-(2-(hydroxymethyl)-4-((3-(4-methoxyphenyl)imidazo[1,2-a]pyrazin-8-yl)amino)phenyl)acetamide], with 0.63 µM.

With `COc1ccc(-c2cnc3c(Nc4ccc(N5CCCC5=O)c(C)c4)nccn23)cc1` [Example 58, 1-(4-((3-(4-methoxyphenyl)imidazo[1,2-a]pyrazin-8-yl)amino)-2-methylphenyl)pyrrolidin-2-one], the IC90 was 0.26 µM. For `COc1ccc(-c2cnc3c(Nc4ccc(S(=O)(=O)NCCOCCN)c(C)c4)nccn23)cc1` [Example 61, N-(2-(2-aminoethoxy)ethyl)-4-((3-(4-methoxyphenyl)imidazo[1,2-a]pyrazin-8-yl)amino)-2-methylbenzenesulfonamide], the IC90 is 0.73 µM. Same read-out and setting: the figure for `CCCCC(=O)NCCOCC(=O)Nc1ccc(Nc2nccn3c(-c4ccc(OC)cc4)cnc23)cc1C` [Example 90, N-(2-(2-((4-((3-(4-methoxyphenyl)imidazo[1,2-a]pyrazin-8-yl)amino)-2-methylphenyl)amino)-2-oxoethoxy)ethyl)pentanamide] is 0.24 µM. In the case of `COc1ccc(-c2cnc3c(Nc4ccc(S(=O)(=O)N(C)C)cc4)nccn23)cc1` [Example 77, 4-((3-(4-methoxyphenyl)imidazo[1,2-a]pyrazin-8-yl)amino)-N,N-dimethylbenzenesulfonamide], the concentration for an effect of 90% (IC90) is 0.63 µM. For `CCc1cc(Nc2nccn3c(-c4ccc(OC)cc4)cnc23)ccc1NC(C)=O` [Example 38, N-(2-ethyl-4-((3-(4-methoxyphenyl)imidazo[1,2-a]pyrazin-8-yl)amino)phenyl)acetamide], the IC90 stood at 0.2 µM. `COc1ccc(-c2cnc3c(Nc4ccc(NC(=O)CO)cc4)nccn23)cc1F` [Example 12, N-[4-[[3-(3-fluoro-4-methoxy-phenyl)imidazo [1,2-a]pyrazin-8-yl]amino]phenyl]-2-hydroxy-acetamide; 2,2,2-trifluoroacetic acid]: the concentration for an effect of 90% (IC90) amounted to 0.89 µM. The same measure, in the same setting: then `COc1ccc(-c2cnc3c(Nc4ccc(NC(=O)CN5CCOCC5)cc4)nccn23)cc1Cl` [Example 36, N-(4-((3-(3-chloro-4-methoxyphenyl)imidazo[1,2-a]pyrazin-8-yl)amino)phenyl)-2-morpholinoacetamide], with 0.84 µM; and `CC(=O)Nc1ccc(Nc2nccn3c(-c4ccc(F)c(F)c4F)cnc23)cc1` [Example 82, N-(4-((3-(2,3,4-trifluorophenyl)imidazo[1,2-a]pyrazin-8-yl)amino)phenyl)acetamide], with 0.89 µM; and `CC(=O)Nc1ccc(Nc2nccn3c(-c4ccc(F)c(F)c4F)cnc23)cc1C` [Example 87, N-(2-methyl-4-((3-(2,3,4-trifluorophenyl)imidazo[1,2-a]pyrazin-8-yl)amino)phenyl) acetamide], with 0.26 µM. Same read-out and setting: the figure for `COc1ccc(-c2cnc3c(Nc4ccc(NC(C)=O)cc4)nccn23)c(F)c1` [Example 34, N-(4-((3-(2-fluoro-4-methoxyphenyl)imidazo[1,2-a]pyrazin-8-yl)amino)phenyl)acetamide] is 0.55 µM. Consider `Cc1cc(Nc2nccn3c(-c4ccc(Cl)cc4)cnc23)ccc1N1CCCC1=O` [Example 60, 1-(4-((3-(4-chlorophenyl)imidazo[1,2-a]pyrazin-8-yl)amino)-2-methylphenyl)pyrrolidin-2-one], for which the IC90 stood at 0.76 µM.

For `CCN1CCN(CC(=O)Nc2ccc(Nc3nccn4c(-c5ccc(OC(F)F)cc5)cnc34)cc2C)CC1` [Example 55, N-(4-((3-(4-(difluoromethoxy)phenyl)imidazo[1,2-a]pyrazin-8-yl)amino)-2-methylphenyl)-2-(4-ethylpiperazin-1-yl)acetamide], the IC90 was determined as 0.28 µM. Same read-out and setting: then `COc1ccc(-c2cnc3c(Nc4ccc(N5CCCC5=O)cc4)nccn23)cc1` [Example 18, 1-[4-[[3-(4-methoxyphenyl)imidazo[1,2-a]pyrazin-8-yl]amino]phenyl]pyrrolidin-2-one], with 0.33 µM.

On to `O=C1CCCN1c1ccc(Nc2nccn3c(-c4ccc(OC(F)F)cc4)cnc23)cc1` [Example 35], for which the IC90 came to 0.15 µM. For the compound `O=C1CCCN1c1ccc(Nc2nccn3c(-c4ccc(OC(F)F)c(F)c4)cnc23)cc1` [Example 57, 1-(4-((3-(4-(difluoromethoxy)-3-fluorophenyl)imidazo [1,2-a]pyrazin-8-yl)amino)phenyl)pyrrolidin-2-one], the IC90 came out at 0.14 µM.

With `CC(=O)Nc1ccc(Nc2nccn3c(-c4ccc(Cl)cc4)cnc23)cc1C` [Example 43, N-(4-((3-(4-chlorophenyl)imidazo[1,2-a]pyrazin-8-yl)amino)-2-methylphenyl)acetamide], the IC90 worked out at 0.12 µM. As for `CC(=O)Nc1ccc(Nc2nccn3c(-c4ccc(F)cc4F)cnc23)cc1C` [Example 83, N-(4-((3-(2,4-difluorophenyl)imidazo[1,2-a]pyrazin-8-yl)amino)-2-methylphenyl)acetamide], the IC90 amounted to 0.7 µM. Take `Cc1cc(Nc2nccn3c(-c4ccc(OC(F)F)cc4)cnc23)ccc1N1CCCC1=O` [Example 54, 1-(4-((3-(4-(difluoromethoxy)phenyl)imidazo[1,2-a]pyrazin-8-yl)amino)-2-methylphenyl)pyrrolidin-2-one]: the IC90 worked out at 0.72 µM. Still for that read-out and setting: then `Cc1cc(Nc2nccn3c(-c4ccc(OC(F)F)cc4)cnc23)ccc1NC(=O)CN1CCC(N)C1` (stereo not shown) [Example 59, 2-(3-aminopyrrolidin-1-yl)-N-(4-((3-(4-(difluoromethoxy)phenyl)imidazo[1,2-a]pyrazin-8-yl)amino)-2-methylphenyl)acetamide], with 0.25 µM; and `CCc1cc(Nc2nccn3c(-c4ccc(OC)c(F)c4F)cnc23)ccc1N` [Example 92, N1-(3-(2,3-difluoro-4-methoxyphenyl)imidazo[1,2-a]pyrazin-8-yl)-3-ethylbenzene-1,4-diamine], with 0.7 µM; and `COc1ccc(-c2cnc3c(Nc4ccc(NC(C)=O)c(C)c4)nccn23)cc1F` [Example 47, N-(4-((3-(3-fluoro-4-methoxyphenyl)imidazo[1,2-a]pyrazin-8-yl)amino)-2-methylphenyl)acetamide], with 0.13 µM. As for `CC(=O)Nc1ccc(Nc2nccn3c(-c4ccc(F)cc4)cnc23)cc1C` [Example 53, N-(4-((3-(4-fluorophenyl)imidazo[1,2-a]pyrazin-8-yl)amino)-2-methylphenyl)acetamide], the IC90 is 0.36 µM. As to `COc1ccc(-c2cnc3c(Nc4ccc(NC(=O)COCCN)c(C)c4)nccn23)cc1` [Example 75, 2-(2-aminoethoxy)-N-(4-((3-(4-methoxyphenyl)imidazo[1,2-a]pyrazin-8-yl)amino)-2-methylphenyl)acetamide hydrochloride], the IC90 came to 0.28 µM. Take `CNS(=O)(=O)c1ccc(Nc2nccn3c(-c4ccc(OC)c(Cl)c4)cnc23)cc1` [Example 91, 4-((3-(3-chloro-4-methoxyphenyl)imidazo[1,2-a]pyrazin-8-yl)amino)-N-methylbenzenesulfonamide]: the IC90 came out at 0.81 µM.

Staying with this assay, now noted: ATCC17978, 16 h, read-out: AB ATCC 17978 IC90 (uM).
Regarding `COc1ccc(-c2cnc3c(Nc4ccc(N(C)C(C)=O)cc4)nccn23)cc1Cl` [Example 7], the concentration for an effect of 90% (IC90) came out at 0.86 µM.

For the compound `COc1ccc(-c2cnc3c(Nc4ccc(NC(=O)COCCOCCN)cc4)nccn23)cc1Cl` [Example 13, 2-[2-(2-aminoethoxy)ethoxy]-N-[4-[[3-(3-chloro-4-methoxy-phenyl)imidazo[1,2-a]pyrazin-8-yl]amino]phenyl]acetamide; 2,2,2-trifluoroacetic acid], the IC90 is 0.81 µM.
